Measurements: patent US9884012B2, “Use of PEDF-derived polypeptides for promoting muscle or tendon regeneration or arteriogenesis” (MacKay Memorial Hospital, priority 2012, dated 2018)

What was measured:
[1] = system: adductor magnus muscle arterioles; assay: hindlimb ischemia model, arteriole density (α-SMA) in adductor magnus muscle; assay type: in vivo, C57BL/6 wild-type mice; settings: two weeks after surgery, sustained-release formulation (Bolus: bolus 29-mer)
Protocol: The small artery densities (α-SMA positive cells surrounding the whole circumference of the vessel) were measured and images were taken from 10 randomly-selected areas of adductor magnus muscle (200× magnification) in each sample, and blinded quantification was performed in triplicate by manually counting within each section; values from five sections were then averaged and expressed as arteriole density per mm^2.
6-week-old female C57BL/6 wild-type mice were anesthetized by an intraperitoneal injection of a mixture of zoletil (6 mg/kg) and xylazine (3 mg/kg). Hair was removed from the hindquarter with a depilating cream. To establish hindlimb ischemia, unilateral external iliac and femoral arteries and veins were ligated, cut, and excised. After surgery, the mice were randomly assigned to several experimental groups (n=6, each group) and treated as follows. In the blank control group, the mice were treated with 50 μl of blank alginate gel, whereas in the bolus control group, the mice received the bolus formulation containing 29-mer. In the PEDF peptide/alginate gel treatment groups, the mice received 50 μl of the sustained-release formulation, which comprised either 29-mer, 24-mer, or 20-mer. Additionally, in a PEDF 18-mer control group, mice were treated with a sustained-release formulation containing a PEDF 18-mer peptide. Treatments were applied by way of a single intramuscular injection to the gracilis muscle immediately after femoral artery and vein excision operation. The incision was closed after the wound was irrigated with sterile saline.
To investigate the arteriogenic effect of the present sustained-release formulation, adductor magnus muscles (located at the same level as femoral artery excision and in which arteriogenesis responsible for establishing collateral circulation is expected to be found) were harvested from animals in each experimental condition, two weeks after the surgery. Arterioles in muscle cross sections were identified by immunohistological staining for vascular smooth muscle cells (α-SMA; brown), and nuclei were labeled with hematoxylin; representative photographs were provided in FIG. 5. Quantitative analysis was also performed and the results were summarized in Table 3, and the data were expressed as α-SMA-positive arterioles per mm^2 in the peri-injury region.

tendon stem cells (TSCs) = assay: TSCs proliferation assay (BrdU labeling) in vitro; assay type: cell-based, New Zealand White rabbits; settings: TSCs passage 4; 50 nM peptide, 5% FBS, 24 hours; BrdU pulse-labeling
Protocol: New Zealand White rabbits (6-8 months old, 3.0-4.0 kg) were used in this study. Achilles tendons were removed from the rabbits by cutting through their bony attachments. The tendon sheath was stripped away and the core portion of the tendons was minced into small fragments. Each 100 mg of fragment was then digested in a solution containing 3 mg/mL of type I collagenase and 4 mg/mL of dispase in 1 ml Dulbecco's Modified Eagle Medium (DMEM-high glucose) at 37° C. for 2 hours. The resultant cell suspension was centrifuged at 1,000 rpm for 15 minutes to obtain a cell pellet which was then resuspended in a growth medium consisting of DMEM supplemented with 10% heat inactivated fetal bovine serum (FBS), 100 μM 2-mercaptoethanol, and 100 U/ml penicillin and 100 μg/ml streptomycin. For passage, near-confluent cells were harvested with 0.25% trypsin and then 1×10^5 subcultured cells were further cultured in medium.
The TSCs at passage 4 were seeded at gelatin-coated slide in a 6-well plate at a density of 2×10^5 cells per well and cultured in growth medium (DMEM+10% FBS) for 24 hours before being replaced by a basal growth medium with 5% FBS only (control group) or with 5% FBS plus an additional 50 nM of PEDF-derived peptide (i.e., 29-mer, 24-mer, 20-mer, 18-mer, Mo 29-mer, or Mo 20-mer) for 24 hours. For BrdU labeling assay, BrdU (final concentration, 10 μM) was added to the culture for 4 hours. After fixing with 4% paraformaldehyde, cells were exposed to cold methanol for 2 minutes, and then treated with 1 N HCl at RT for 1 hour before performing immunofluorescence. The phenotype of passage 4 TSC was determined by immunocytochemistry of nucleostemin and type I collagen. Almost all of expanded TSCs were nucleostemin and type I collagen-double positive cells.
It has been reported that during the tendon healing process, tendon stem cells (TSCs) would proliferate and differentiate into tenocytes. To investigate whether present PEDF peptides would induce the proliferation of TSCs in vitro, tendons stem cells were isolated and cultured as described in the “Materials and Methods” section. The purity of TSCs was confirmed by a TSC marker, nucleostemin, as well as the expression of type I collagen by TSCs; together, these analyses indicated a TSC purity of near 100% (data not shown). The proliferation of TSCs was confirmed by BrdU pulse-labeling for 2 hours. Quantitative analysis of the level of BrdU-positive cells was performed as described above, and the results were summarized in Table 8.

[2] = system: tendon stem cells (TSCs) in injured tendon; assay: tendo Achilles injury model, in vivo TSC proliferation (nucleostemin staining); design: species or system Sprague-Dawley rats; settings: injured tendon specimens of Example 4.1; sustained-release formulation (Bolus: bolus 29-mer)
Protocol: De-paraffinized tissue sections or 4% paraformaldehyde fixed rabbit tendon stem cells (TSCs) were blocked with 10% goat serum and 5% BSA for 1 hour. Double staining was done using primary antibodies against α-SMA (1:100 dilution), IB4 (5 μg/ml), Pax7 (1:100 dilution), nucleostemin (1:100 dilution) and type I collagen 1A1 (1:50) at 37° C. for 2 hours, followed by incubation with the appropriate rhodamine- or FITC-conjugated donkey IgG for 1 hour at RT. Nuclei were located by counterstaining with Hoechst 33258 for 7 minutes. Images were captured using a Zeiss epifluorescence microscope with a CCD camera.
To investigate the effects of the present PEDF peptides on tendon regeneration, a rat model with tendon injury was established as follows. Adult 10-week-old male Sprague-Dawley rats (total n=50; initial body weight=312±11 g) were anesthetized by an intraperitoneal injection of a xylazine (10 mg/kg). Then, the left tendo Achilles injury was created by full-thickness insertion of an 18-gauge needle through tendo Achilles 1 cm proximal to its insertion into the calcaneum. This created a horizontal (transaction) wound which was flanked by intact tendon tissue on both sides to prevent the retraction of severed ends.
The rats were randomly assigned (n=10/group) to five experimental groups and treated as follows. In the blank control group, the mice were treated with 150 μl of blank alginate gel. For the bolus control group, 150 μl of the bolus formulation (29-mer) was administered. […]
Specimens obtained from animals in different experimental groups of Example 4.1 were stained for nucleostemin (green) to investigate whether in vivo TSC proliferation would be promoted by the present sustained-release formulation during the tendon wound healing process. In quantitative analysis, ten randomly selected microscopic fields in each experimental group were photographed, and the percentage of nucleostemin-positive cells per total cells (counterstained by Hoechst 33258; blue) was calculated.

aortic ring explants = assay: rat aortic ring sprouting assay (ex vivo neovessel sprouting); assay type: cell-based; settings: aortic rings cultured with PEDF peptide, in words

Sequence | Arteriole Density per mm^2 (α-SMA-positive arterioles) [1] | BrdU Labeling Index (%) (tendon stem cells (TSCs)) | Nucleostemin Labeling Index (%) [2] | neovessel phenotype by dual immunofluorescence (α-SMA / isolectin B4) (aortic ring explants)
SLGAEQRTESIIHRALYYDL [20-mer, synthetic peptide corresponding to residues 93-112 of human PEDF] | 10.7 ± 1.2 per mm^2 | 33.2 ± 6.6 % | 15.0 ± 3.9 % | displayed arteriole phenotype with a SMC coating
SLGAEQRTESIIHRALYYDLISSP [24-mer, synthetic peptide corresponding to residues 93-116 of human PEDF] | 10.0 ± 0.58 per mm^2 | 29.0 ± 4.6 % | 16.8 ± 4.2 % | 
SLGAEQRTESIIHRALYYDLISSPDIHGT [29-mer, synthetic peptide corresponding to residues 93-121 of human PEDF] | 11.7 ± 1.5 per mm^2 | 31.8 ± 3.6 % | 16.4 ± 2.9 % | displayed arteriole phenotype with a SMC coating
